Assay results taken from BindingDB's records for doi:10.1016/j.bmcl.2016.10.061 (Ocean University of China, 2016).

Molecular target: Proto-oncogene tyrosine-protein kinase receptor Ret (Homo sapiens) (UniProt P07949)
Assay: Inhibition of CCDC6/RET (unknown origin) expressed in mouse BaF3 cells assessed as reduction in cell proliferation after 72 hrs by MTT assay

Sequence of Proto-oncogene tyrosine-protein kinase receptor Ret (Homo sapiens) (P07949 whole entry, looked up): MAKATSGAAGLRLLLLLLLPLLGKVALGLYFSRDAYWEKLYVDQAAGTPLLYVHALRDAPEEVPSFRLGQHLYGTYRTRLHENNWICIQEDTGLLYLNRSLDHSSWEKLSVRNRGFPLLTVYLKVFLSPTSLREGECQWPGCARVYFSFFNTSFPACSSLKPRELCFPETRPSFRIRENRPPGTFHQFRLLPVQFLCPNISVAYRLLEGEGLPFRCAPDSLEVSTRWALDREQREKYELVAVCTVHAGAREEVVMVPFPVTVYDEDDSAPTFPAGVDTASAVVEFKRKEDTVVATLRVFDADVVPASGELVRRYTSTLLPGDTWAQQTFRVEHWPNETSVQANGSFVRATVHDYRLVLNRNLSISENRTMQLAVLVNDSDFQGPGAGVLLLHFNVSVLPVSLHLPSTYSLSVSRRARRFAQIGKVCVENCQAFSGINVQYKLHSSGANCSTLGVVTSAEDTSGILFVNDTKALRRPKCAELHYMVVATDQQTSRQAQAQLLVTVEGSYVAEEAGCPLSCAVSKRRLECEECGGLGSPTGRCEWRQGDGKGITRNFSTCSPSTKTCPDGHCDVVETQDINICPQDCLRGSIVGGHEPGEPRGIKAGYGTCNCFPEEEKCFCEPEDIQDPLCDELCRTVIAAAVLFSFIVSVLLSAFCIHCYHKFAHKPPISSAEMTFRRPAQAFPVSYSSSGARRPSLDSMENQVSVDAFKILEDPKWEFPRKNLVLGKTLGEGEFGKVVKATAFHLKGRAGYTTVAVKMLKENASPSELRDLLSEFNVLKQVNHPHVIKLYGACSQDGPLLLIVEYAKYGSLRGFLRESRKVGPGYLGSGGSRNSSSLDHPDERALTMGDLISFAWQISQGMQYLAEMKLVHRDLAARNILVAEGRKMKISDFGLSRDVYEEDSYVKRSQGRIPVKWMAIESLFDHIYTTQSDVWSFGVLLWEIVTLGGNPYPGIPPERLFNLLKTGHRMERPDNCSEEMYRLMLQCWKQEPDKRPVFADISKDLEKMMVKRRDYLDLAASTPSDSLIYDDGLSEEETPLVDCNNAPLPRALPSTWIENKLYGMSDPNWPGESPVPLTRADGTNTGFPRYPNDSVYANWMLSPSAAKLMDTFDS

CN1CCN(Cc2ccc(NC(=O)c3ccc(Cl)c(-c4noc(-c5cncc(-c6cnn(C)c6)c5)n4)c3)cc2C(F)(F)F)CC1
IC50: 407 nM
